In paper PMC6017454, “A Xylenol Orange-Based Screening Assay for the Substrate Specificity of Flavin-Dependent para-Phenol Oxidases” (Molecules : A Journal of Synthetic Chemistry and Natural …, 2018):

Key:
[1] = target: T1, His-VAO (vanillyl alcohol oxidase) (Penicillium simplicissimum, UniProt P56216); experiment: flavin absorption spectrum; trichloroacetic acid precipitation; type: binding; settings: covalent; co-purified
T1 construct: gene VAOA; N-terminal 6xHis tag plus single Gly, tag kept; codon-optimised, E. coli BL21; covalent FAD; VAO predominantly octameric

[2] = target: T2, EUGO-His (eugenol oxidase) (Rhodococcus jostii, UniProt Q0SBK1); experiment: as above; type: binding; settings: covalent; co-purified
T2 construct: gene RHA1_ro03282; E. coli TOP10; covalent FAD; EUGO dimeric
T2 sequence (Q0SBK1 1-526): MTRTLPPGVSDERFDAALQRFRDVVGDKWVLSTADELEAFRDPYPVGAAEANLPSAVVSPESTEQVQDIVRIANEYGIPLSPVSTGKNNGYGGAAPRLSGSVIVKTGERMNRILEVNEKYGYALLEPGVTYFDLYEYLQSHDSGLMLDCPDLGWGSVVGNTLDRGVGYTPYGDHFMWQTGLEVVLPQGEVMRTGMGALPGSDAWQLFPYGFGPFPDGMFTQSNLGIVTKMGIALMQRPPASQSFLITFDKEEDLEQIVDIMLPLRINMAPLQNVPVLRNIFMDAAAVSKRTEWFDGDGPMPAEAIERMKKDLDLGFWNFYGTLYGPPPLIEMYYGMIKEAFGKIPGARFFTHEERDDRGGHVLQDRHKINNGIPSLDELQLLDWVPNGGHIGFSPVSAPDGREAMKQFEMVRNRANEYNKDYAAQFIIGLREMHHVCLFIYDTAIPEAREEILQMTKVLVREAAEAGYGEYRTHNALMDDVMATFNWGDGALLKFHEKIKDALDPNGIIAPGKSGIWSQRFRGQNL

T1 sequence (P56216 whole entry): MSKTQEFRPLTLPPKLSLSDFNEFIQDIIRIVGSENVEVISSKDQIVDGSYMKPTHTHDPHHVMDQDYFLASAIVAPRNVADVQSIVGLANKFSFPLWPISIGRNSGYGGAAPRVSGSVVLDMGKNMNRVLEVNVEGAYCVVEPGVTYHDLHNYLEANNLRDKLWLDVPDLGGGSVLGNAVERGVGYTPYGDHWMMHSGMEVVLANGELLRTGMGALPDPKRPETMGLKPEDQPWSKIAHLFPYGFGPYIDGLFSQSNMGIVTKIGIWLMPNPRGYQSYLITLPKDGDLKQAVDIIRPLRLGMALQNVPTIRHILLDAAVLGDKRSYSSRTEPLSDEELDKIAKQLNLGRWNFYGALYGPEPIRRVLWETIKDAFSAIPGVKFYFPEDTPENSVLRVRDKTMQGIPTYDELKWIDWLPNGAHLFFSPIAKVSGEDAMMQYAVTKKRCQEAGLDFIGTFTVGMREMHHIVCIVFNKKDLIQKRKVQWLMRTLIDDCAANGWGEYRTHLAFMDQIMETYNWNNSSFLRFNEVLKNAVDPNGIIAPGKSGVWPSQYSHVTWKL

Structure (SMILES): Cc1cc2nc3c(=O)[nH]c(=O)nc-3n(C[C@H](O)[C@H](O)[C@H](O)COP(=O)(O)OP(=O)(O)OC[C@H]3O[C@@H](n4cnc5c(N)ncnc54)[C@H](O)[C@@H]3O)c2cc1C [FAD]
- flavin absorption spectrum; trichloroacetic acid precipitation [1]: demonstrating that the flavin cofactor is covalently bound to the protein
- flavin absorption spectrum; trichloroacetic acid precipitation [2]: demonstrating that the flavin cofactor is covalently bound to the protein
